Measurements published in PubChem BioAssay (NCI).
“And” between values parts separate entries of the source, which are not always exact repeats. Equal values may be shown once.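 Where inhibition never reached the appropriate level, the endpoint shown equals the highest concentration tested. Otherwise, values were interpolated linearly from a five-concentration, 48-hour dose response in 96-well plates. GI50 marks 50% less growth. TGI marks complete inhibition of growth.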

Key:
Assay in all cases: NCI anticancer screen, dose series, 48 h
A498 renal = test system: A498 renal
CCRF-CEM leukemia = test system: CCRF-CEM leukemia
M14 melanoma = test system: M14 melanoma
MDA-MB-231 breast = test system: MDA-MB-231 breast
OVCAR-8 ovarian = test system: OVCAR-8 ovarian
SK-MEL-2 melanoma = test system: SK-MEL-2 melanoma
SK-MEL-28 melanoma = test system: SK-MEL-28 melanoma
UO-31 renal = test system: UO-31 renal
K-562 leukemia = test system: K-562 leukemia
NCI-H226 lung = test system: NCI-H226 lung

Structure (SMILES) | TGI (A498 renal) | TGI (CCRF-CEM leukemia) | TGI (M14 melanoma) [µM] | TGI (MDA-MB-231 breast) [µM] | TGI (OVCAR-8 ovarian) [µM] | TGI (SK-MEL-2 melanoma) [µM] | TGI (SK-MEL-28 melanoma) | TGI (UO-31 renal) [µM] | TGI (K-562 leukemia) [µM] | TGI (NCI-H226 lung) [µM] | GI50 (CCRF-CEM leukemia) | GI50 (K-562 leukemia) | GI50 (M14 melanoma) [µM] | GI50 (MDA-MB-231 breast) [µM] | GI50 (OVCAR-8 ovarian) [µM] | GI50 (SK-MEL-2 melanoma) [µM] | GI50 (SK-MEL-28 melanoma) | GI50 (UO-31 renal) [µM] | GI50 (NCI-H226 lung) [µM] | GI50 (A498 renal) [µM]
OCC1OC(n2cnc3c2NC=NC[C@H]3O)C(Cl)C1O (some centres undefined) | > 100 µM | > 100 µM | > 100 | > 100 | > 100 | > 100 | > 100 µM | > 100 |  |  |  |  |  |  |  |  |  |  |  | 
Cc1cc(NC(=S)SCc2ccc(F)cc2)c([N+](=O)[O-])cc1C |  |  | > 100 | 34.6 | 38.6 |  | > 100 µM |  | > 100 | 38.7 |  |  |  |  |  |  |  |  |  | 
CCOC(=O)C1SC(=Nc2ccc(C)c(C)c2)N=C1C (centres undefined) | > 100 µM | > 100 µM | > 100 |  | > 100 | > 100 | > 100 µM | > 100 | > 100 | > 100 |  |  |  |  |  |  |  |  |  | 
CCOC(=O)N[C@@H]1C(CC(=O)OC)O[C@H]2OC(C)(C)O[C@H]21 (some centres undefined) | > 100 µM | > 100 µM | > 100 |  |  | > 100 | > 100 µM | > 100 | > 100 | > 100 |  |  |  |  |  |  |  |  |  | 
COc1ccc(CN2CC(C)(C)C2=O)c(OC)c1 | > 100 µM | > 100 µM | > 100 |  | > 100 | > 100 | > 100 µM | > 100 | > 100 | > 100 |  |  |  |  |  |  |  |  |  | 
CC12OC(C(=O)C13CC3)C1C(=O)c3ccc4c(ccc5ccccc54)c3C(=O)C12 (centres undefined) |  | > 100 µM | 95 | 77.9 | > 100 | > 100 | > 100 µM | > 100 | > 100 |  | 29.5 µM | 47.6 µM | 25.2 | 13 | 30.4 | 53.1 | 66.3 µM | 77.3 |  | 
Clc1cc(Cl)c2ns[s+]c2c1Cl | > 100 µM | > 100 µM | > 100 |  | > 100 | > 100 | > 100 µM | > 100 | > 100 | > 100 |  |  |  |  |  |  |  |  |  | 
S=c1ssc(N2CCOCC2)c1Cl |  |  | > 100 | > 100 | > 100 | > 100 | 57.9 µM | > 100 | > 100 | > 100 |  | 26.3 µM | > 100 | 26.6 | > 100 | > 100 | 38.2 µM | > 100 | > 100 | 
O=c1cc(NCC(O)CN2CCCC2)n(Cc2ccccc2)c(=O)n1Cc1ccccc1 (centres undefined) | > 100 µM | 80.6 µM |  | 70.6 | > 100 | > 100 | 34.6 µM | > 100 | 60.5 | > 100 | 28.1 µM | 25.2 µM |  | 26.3 | > 100 | > 100 | 16.7 µM | 45.8 | > 100 | > 100
CCOC(=O)/C(C)=C(/O)C(=O)OCC | > 100 µM | > 100 µM | > 100 |  | > 100 | > 100 | > 100 µM | > 100 | > 100 | > 100 |  |  |  |  |  |  |  |  |  | 
COc1cc2[nH]c3c(c2cc1OC)CCN[C@]31CC[C@]2(CC3c4c(cc(OC)c(O)c42)CCN3C)C[C@H]1OC (some centres undefined) | 70.9 µM | 26.7 µM | 29.5 |  | 50 |  | 36.6 µM |  | 23.7 | > 100 |  |  |  |  |  |  |  |  |  | 
COc1cc(/C=C/c2ccc(OC)c(O)c2)cc(OC)c1 | > 100 µM | 15.2 µM | 12.8 |  | 36.1 | 29.8 | 24.5 µM | 41.9 | 8.64 | 16.7 |  |  |  |  |  |  |  |  |  | 
C=CCCCCC/C=C\[C@@H](O)C#CC#C/C=C/CO | > 100 µM |  | > 100 | > 100 | 68.9 | > 100 | > 100 µM | > 100 | 37.5 | 57.6 |  | 18.5 µM | > 100 | 40 | 25.1 | > 100 | 0.867 µM | > 100 | 25.5 | > 100
COc1cc(Cc2nccc3cc(OC)c(OC)cc23)c(C(C)=O)cc1OC | > 300 µM and 507 µM | 98.2 µM and 63 µM | > 750 |  | 3 | 300 | 42.1 µM and 331 µM | > 750 | 300 |  | 15.4 µM and 16.2 µM | 37.6 µM and 194 µM |  |  |  |  | 20.4 µM and 142 µM | > 750 |  | 204
[N-]=[N+]=C1C(=O)NN=C1c1ccccc1 |  | > 100 µM | > 100 |  | > 100 | > 100 | > 100 µM |  | > 100 | > 100 |  |  |  |  |  |  |  |  |  | 
Cc1cc2nc(C=C(C(F)(F)F)C(F)(F)F)oc2cc1C | > 10 µM | 6.74 µM | 5.03 | 5.42 | 6.68 | > 10 | > 10 µM | > 10 | 5.1 |  |  |  |  |  |  |  |  |  |  | 
COc1c(C(=O)/C=C/c2ccccc2)c(O)cc2occc12 | 21.8 µM |  | 25.7 | 17.5 | 12.5 | 25.2 | 20.7 µM | 11.8 | > 100 | 20.8 |  | 4.42 µM | 8.89 | 4.38 | 3.62 | 12.4 | 7.03 µM | 3.14 | 6.03 | 7.97
CC1=CC(C)(C)N=C2SC(c3ccc(N)cc3)=NN12 | > 100 µM | > 72.4 µM | > 100 |  | > 100 | > 100 | > 100 µM | > 100 | > 66 | > 100 |  |  |  |  |  |  |  |  |  | 
CC1=[N+]([O-])c2ccccc2C(=O)C1=O | > 100 µM | 74.2 µM | > 100 |  | > 100 | > 100 | > 100 µM | > 100 | > 100 | > 100 |  |  |  |  |  |  |  |  |  | 
COC(=O)C12CC3CC(CC(C(=O)O)(C3)C1)C2 | > 100 µM | > 100 µM | > 100 |  | > 100 |  | > 100 µM | > 100 | > 100 |  |  |  |  |  |  |  |  |  |  | 
